In US20250127165A1, “USE OF 2-AMINO-3-PHENYLBUTYRIC ACID OR 2,6-DIAMINO-3-METHYLHEXANOIC ACID AS PLANT IMMUNE RESISTANCE INDUCER” (NANJING TIANNONG BIOTECHNOLOGY CO., LTD., priority 2021, published 2025):

How the values were obtained:
ryegrass = assay: Induced resistance of ryegrass to high temperature stress; format: in vivo; settings: for heat injury index (%): 45° C. 12 h, 7 days recovery
Procedure: 2,6-diamino-3-methylhexanoic acid was dissolved in distilled water and then gradiently diluted with distilled water into solutions of 1 nM, 10 nM, 100 nM, and 1,000 nM, and a blank control was set up, while 0.02% Tween 20 was added as surfactant. Four groups of replicates were set up for each concentration, and set up a blank control at room temperature. Ryegrass seeds were weighed and planted in a pot with a diameter of 8.5 cm at 0.8 g per pot, and transferred to a greenhouse with a temperature of 25° C., a humidity of 60%-70%, and a light intensity of 200 μmol m^−2s^−1 (12 h light/12 h darkness). After 7 days of growth, ryegrass was treated by spraying 2,6-diamino-3-methylhexanoic acid solution on the leaf surface, and spraying twice within 24 hours. 24 hours after the second spray, the plants were transferred to a light incubator at 45° C. for high temperature stress treatment. After 12 hours of treatment, they were removed and transferred to a greenhouse at 25° C. for 7 days for recovery. The injured conditions of the plants were observed and the grade of hot injury was calculated, where the grading standard of heat injury is shown in Table 8, and the formula for calculating the heat injury index is as follows.

lysine monooxygenase = settings: Ohnishi et al., 1976; cited from earlier work
tea seedlings (Baiye 1) = assay: Induced resistance of tea tree to low temperature stress; format: in vivo; settings: for PIABS (photosynthetic performance index): after −4° C. for 24 h; for cold injury index (%): −4° C. 24 h, 3 days recovery
Procedure: The tea tree tested was cutting seedling of Baiye 1. Tea seedlings with consistent growth were selected and transplanted into plastic pots with a diameter of 18 cm and placed in a greenhouse with a temperature of 25° C. and a humidity of 60%-70% for adaptive growth for about a week for the experiment. The concentrations used in this experiment were 0, 100, 1,000, and 10,000 nM, and 0.02% Tween 20 was added as surfactant, where the spray treatment method was the same as that of Arabidopsis thaliana in Example 1, the duration of low temperature stress was 24 hours, and the temperature was set to −4° C. After the stress was completed, the tea seedlings were removed and after 30 min of dark treatment at room temperature, the chlorophyll fluorescence of the top leaves of the tea seedlings was measured with Plant Efficiency Handy PEA. The tea seedlings were then placed in a greenhouse at 25° C. for 3 days for recovery. Then the condition of cold injury was observed and graded, where the grading standard of cold injury is shown Table 12, the formula for calculating the cold injury index is as follows.
The concentrations of 2,6-diamino-3-methylhexanoic acid used in the trail were 0, 1, 10, 100, and 1,000 nM, and 0.02% Tween 20 was added as surfactant. The effect of 2,6-diamino-3-methylhexanoic acid to induce the resistance of tea to low-temperature stress was investigated according to the method as described above.

wheat powdery mildew = assay: Field trial of induced resistance of wheat to powdery mildew; format: in vivo; settings: 1,000 nM, field spray
Procedure: A solution of 2-amino-3-phenylbutyric acid at a concentration of 1,000 nM (with 0.02% by volume of surfactant Tween 20) was sprayed onto the stems and leaves in the field. The treatment included spraying 0.02% by volume of surfactant Tween 20 as an auxiliary control, and Atailing (30 g/mu) as a positive control, with two replications per treatment. After the spray, the disease grade of wheat in each treatment group was investigated, and the morbidity degree was recorded according to the grading standard of wheat powdery in the “Pesticides-Guidelines for the Field Efficacy Trails” (I), and the disease index and the relative immunization effect were calculated in the same manner as those of tomato spotted wilt. After the harvested wheat seeds were dried, the thousand grain weight of wheat seeds from different treatments was measured.
Grading Standard of Wheat Powdery Mildew (per leaf): • Grade 1: The area of diseased spots accounts for 5% or less of the whole leaf area; • Grade 3: The area of diseased spots accounts for 6%-15% of the whole leaf; • Grade 5: The area of diseased spots accounts for 16%-25% of the whole leaf; • Grade 7: The area of diseased spots accounts for 26%-50% of the whole leaf; • Grade 9: The area of diseased spots accounts for 50% or more of the whole leaf area.

arthritis in rats = settings: 100 mg/kg and 200 mg/kg; Ren et al., 2019; cited from earlier work
Leuconostoc dextranicum = settings: Edelson & Keeley, 1963; cited from earlier work

With CC(CCCN)C(N)C(=O)O (centres unmarked) [2,6-diamino-3-methylhexanoic acid] as the compound, how does the “heat injury index (%)” value (ryegrass; 1 nM) read?
The value was 60%.

What about the “heat injury index (%)” value (ryegrass; 10 nM) of the same compound?
Its value is 54%.

And the “heat injury index (%)” value (ryegrass; 100 nM)?
Its value is 40%.

And the “decrease of heat injury index” value (ryegrass; 1,000 nM)?
Its value is 69%.

And the “heat injury index (%)” value (ryegrass; 1,000 nM)?
The value was 22%.

What about the “substrate activity for lysine monooxygenase” value (lysine monooxygenase) of the same compound?
Its value is “no substrate activity”.

And the PIABS (photosynthetic performance index) (tea seedlings (Baiye 1); 1 nM)?
Its PIABS (photosynthetic performance index) is 25.53 ± 0.09.

And the “cold injury index (%)” value (tea seedlings (Baiye 1); 1 nM)?
The value was 46%.

And the “PIABS (photosynthetic performance index)” value (tea seedlings (Baiye 1); 10 nM)?
The value was 32.44 ± 1.51 c.

And the “cold injury index (%)” value (tea seedlings (Baiye 1); 10 nM)?
Its value is 42%.

What about the “PIABS (photosynthetic performance index)” value (tea seedlings (Baiye 1); 100 nM) of the same compound?
The value was 37.41 ± 0.14 b.

And the “cold injury index (%)” value (tea seedlings (Baiye 1); 100 nM)?
Its value is 33%.

And the “decrease of cold injury index” value (tea seedlings (Baiye 1); 1,000 nM)?
Its value is 45%.

And the “increase of PIABS” value (tea seedlings (Baiye 1); 1,000 nM)?
The value was 121%.

And the “PIABS (photosynthetic performance index)” value (tea seedlings (Baiye 1); 1,000 nM)?
The value was 40.14 ± 0.15 a.

What about the “cold injury index (%)” value (tea seedlings (Baiye 1); 1,000 nM) of the same compound?
The value was 26%.

With CC(c1ccccc1)C(N)C(=O)O (centres unmarked) [2-amino-3-phenylbutyric acid] as the compound, how does the “relative immunization effect (%)” value (wheat powdery mildew) read?
The value was 51.72%.

And the “thousand grain weight” value (wheat powdery mildew)?
The value was 38.87 g.

What about the “thousand grain weight (g)” value (wheat powdery mildew) of the same compound?
The value was 38.87 ± 0.20 a g.

What about the “effect on arthritis in rats” value (arthritis in rats) of the same compound?
The value was “can alleviate arthritis”.

And the “effect on growth of Leuconostoc dextranicum” value (Leuconostoc dextranicum)?
The value was “inhibited the growth”.

What about the “PIABS (photosynthetic performance index)” value (tea seedlings (Baiye 1); 100 nM) of the same compound?
Its value is 21.83 ± 1.73 bc.

And the “cold injury index (%)” value (tea seedlings (Baiye 1); 100 nM)?
The value was 66.33%.

What about the “PIABS (photosynthetic performance index)” value (tea seedlings (Baiye 1); 1,000 nM) of the same compound?
Its value is 33.67 ± 3.27 b.

What about the “cold injury index (%)” value (tea seedlings (Baiye 1); 1,000 nM) of the same compound?
Its value is 45%.

What about the “decrease of cold injury index” value (tea seedlings (Baiye 1); 10,000 nM) of the same compound?
Its value is 35%.

And the “increase of PIABS” value (tea seedlings (Baiye 1); 10,000 nM)?
Its value is 147%.

And the “PIABS (photosynthetic performance index)” value (tea seedlings (Baiye 1); 10,000 nM)?
The value was 42.36 ± 3.51 a.

And the “cold injury index (%)” value (tea seedlings (Baiye 1); 10,000 nM)?
The value was 40%.
